Data taken from patent US3995055A, “Method for treating peptic ulcers” (priority 1975, dated 1976).
Entries after “also recorded” stand apart in the source; their conditions may differ. Structures can show the parent of a compound that is named as a salt.

Tests used:
Shay ulcers [1] = assay: Shay Ulcer Test by Intraperitoneal Administration; type: in vivo, Donryu rats; details: Rattus norvegicus, ip, 18 h, read-out: Inhibitory Ratio; for inhibition in vivo at 350 mg/kg: 350 mg/Kg intraperitoneally in 0.5% CMC
Procedure: (§1) Donryu rats each weighing 200 to 240 g (six in each group) were starved for 48 hours, and ligated at a portion of the duodenum near the pylorus by the method of Shay et al (see Gastroenterology, 54, 43 (1945)). Immediately after the ligation, DV-1006 was orally administered to the rats at a dosage of 300 mg/Kg. After 18 hours, the abdomen of each of the rats was incised, and the stomach was removed.
Some typical compounds of formula (I) were tested on Shay ulcers in the same way as described in Example 2 except that each of the compounds was suspended in a 0.5% aqueous solution of carboxymethyl cellulose and administered intraperitoneally.

Shay ulcers [2] = assay: Shay Ulcer Test (oral administration); type: in vivo, Donryu rats; details: for inhibitory ratio (Shay ulcer): 18 hours after ligation; for Effectiveness on Shay Ulcer (aggressive factors): Table 1
Procedure: as §1
In the same way as described above, gefarnate, a conventional anti-ulcer agent, was administered to the rats at a dosage of 100 mg/Kg.

drug ulcers = assay: Drug Ulcer Test (indomethacin, aspirin, phenylbutazone); type: in vivo, rats; details: for Inhibitory Ratio, Aspirin ulcer: aspirin 300 mg/Kg; for Inhibitory Ratio, Indomethacin ulcer: indomethacin 25 mg/Kg; for Inhibitory Ratio, Phenylbutazone ulcer: phenylbutazone 200 mg/Kg; for Effectiveness on Drug Ulcer (defensive factors): Table 1
Procedure: Female rats each weighing about 150 g (5 in each group) were starved for 20 hours, and then DV-1006 was administered to the rats. After one hour, 25 mg/Kg of indomethacin, 300 mg/Kg of aspirin and 200 mg/Kg of phenylbutazone, respectively, were administered orally to the rats and the rats were further starved for 5 hours. The stomach of each of the rats was removed, and the ulcer index was measured.
For comparison, the above procedure was repeated except that gefarnate and aluminum sucrose sulfate were used in their basic customary dosages.

acetic ulcers = assay: 10% Acetic Acid Ulcer Test; type: in vivo, Wistar rats; details: for Effectiveness on Acetic Ulcer (defensive factors): Table 1
Procedure: Each of the drugs shown in FIG. 1 was orally administered to the rats once a day for 8 days starting on the date on which the acetic acid was injected. On the ninth day the rats were killed under ether anaesthesia. The stomach of each rat was removed, and opened along the greater curvature. The ulcer index was measured by means of slide calipers, and then the glandular stomach tissue was homogenized by adding a suitable amount of a physiological salt solution, and centrifuged for 20 minutes at a rate of 12,000 rpm.

clamping ulcers = assay: Clamping Ulcer Test; type: in vivo, Wistar male rats; details: for Effectiveness on Clamping Ulcer (defensive factors): Table 1
Procedure: (§2) Each of the drugs shown in FIG. 2 was administered orally once in a day for 14 days starting on the day on which the aluminum metal plate was removed. On the fifteenth day, the rats were killed under ether anaesthesia, and the ulcer index and the mucopolysaccharase activity in the stomach tissue were measured.

[3] = test system: clamping-cortisone ulcers; assay: Clamping-Cortisone Ulcer Test; type: in vivo, rats; details: for Effectiveness on Clamping-Cortisone Ulcer (defensive factors): Table 1
Procedure: as §2
Then, 5 mg/Kg of hydrocortisone acetate was intramuscularly injected into the rats once a day for 7 days starting on the day on which the aluminum metal plate was removed. Each of the agents shown in FIG. 3 was administered orally to the rats once a day for 11 days starting on the day on which the administration of hydrocortisone acetate was stopped.

pepsin secretion = assay: Pepsin Secretion Inhibition Test (beef bouillon pot-au-feu soup stimulating test); type: in vivo, Heidenhain pouch dogs; details: 150 mg/Kg orally, second stimulation 75 minutes later; FIG. 4
Procedure: After oral administration (first stimulation) of 70 ml of a mixture (100 ml) of 6 g of beef bouillon and 6 g of pot-au-feu soup, gastric juice was extracted every 15 minutes. When the secretion of gastric juice returned almost to the value before the stimulation, DV-1006 was orally administered at a dosage of 150 mg/Kg. The second stimulation was given 75 minutes later in the same way as in the first stimulation, and the amount of gastric juice secreted and the amount of pepsin secreted were measured [by the modified method of Anson-Maskey (see J. Gen. Physiol., 16, 59 (1932))] with the passage of time.

gastric ulcers = assay: Clinical test in gastric ulcer patients; type: in vivo
Procedure: Further, in order to confirm the anti-ulcer activities of the compounds of the general formula (I), clinical tests were also conducted using DV-1006 as a representative example of the compounds of the general formula (I). These clinical tests were performed on patients with gastric ulcers at National Zentsuji Hospital in Tokushima Prefecture, Japan.
30 gastric ulcer patients at the Internal Treatment Department of National Zentsuji Hospital in Tokushima Prefecture, Japan, who had been so diagnosed by X-ray and endoscopes, were treated for 8 weeks using an oral administration of DV-1006 at a dosage of 200 mg three times per day. At the end of the 8-week period, 21 patients were completely cured (70%), the condition of 7 patients had been alleviated (23%).

gastric juice = assay: Mode of activity: action on gastric juice; parameters: key: the symbol (+) shows that a particular agent has the indicated activity; the symbol (-) shows that the particular agent does not have the indicated activity; symbol (±) shows that the particular agent has a slight activity
Text: As stated above, DV-1006 acts very strongly both on the aggressive factors and the defensive factors as compared with conventional anti-ulcer agents. […] In the treatment of peptic ulcers, the action of an agent on the gastric juice can be classified roughly into the following five categories: […]

carbachol stimulation = assay: Carbachol stimulation in the Gosh and Schild method; type: in vivo
Text: (§3) Incidentally, it appears from the above table that anticholinergic agents produce […] those produced by DV-1006. […] From a pharmacological standpoint, DV-1006 has the activity selectively inhibiting the secretion of pepsin without affecting acidity and the activity of pepsin itself.

[4] = General anticholinergic activities
Text: as §3

Q: With COc1cc(C=O)ccc1OC(=O)[C@H]1CC[C@H](CN)CC1 as the compound, how does the inhibition in vivo at 350 mg/kg (Shay ulcers [1]) read?
A: The inhibition in vivo at 350 mg/kg was 84%.

Q: Which inhibition in vivo at 350 mg/kg (Shay ulcers [1]) does the source give for NC[C@H]1CC[C@H](C(=O)Oc2ccccc2)CC1 here?
A: The inhibition in vivo at 350 mg/kg was 84%.

Q: What does the source list for NC[C@H]1CC[C@H](C(=O)Oc2ccc(CCC(=O)O)cc2)CC1 [DV-1006, 4'-(2-carboxyethyl)phenyl.trans-4-aminomethylcyclohexane carboxylate]?
A: inhibitory ratio (Shay ulcer) (Shay ulcers [2]; 300 mg/Kg orally, method of Adami et al.): 100%; Effectiveness on Shay Ulcer (aggressive factors) (Shay ulcers [2]): +; Inhibitory Ratio, Aspirin ulcer (drug ulcers; 300 mg/Kg p.o.): 65.3%; Inhibitory Ratio, Indomethacin ulcer (drug ulcers; 300 mg/Kg p.o.): 30.2%; Inhibitory Ratio, Phenylbutazone ulcer (drug ulcers; 300 mg/Kg p.o.): 70.0%; Effectiveness on Drug Ulcer (defensive factors) (drug ulcers): +; dose-response of action on acetic acid ulcers (acetic ulcers; FIG. 1): showed a dose-response; Effectiveness on Acetic Ulcer (defensive factors) (acetic ulcers): +; activity of the mucopolysaccharase in the ulcer portion (acetic ulcers; glandular stomach tissue, ninth day, FIG. 1): reduced; action on ulcers caused by acetic acid (visual ulcer indices) (acetic ulcers; oral once a day for 8 days, ninth day, FIG. 1): marked inhibitory action; also recorded: especially strong action; Effectiveness on Clamping Ulcer (defensive factors) (clamping ulcers): +; action on β-glucuronidase in stomach tissue (clamping ulcers; oral once a day for 14 days, fifteenth day, FIG. 2): especially significant inhibitory action; Effectiveness on Clamping-Cortisone Ulcer (defensive factors) [3]: +; action on clamping-cortisone ulcers ([3]; model of chronic ulcers): especially strong action; action on the activity of β-glucuronidase in stomach tissue ([3]; oral once a day for 11 days, twentieth day, FIG. 3): especially significant inhibitory action; amount of gastric juice secreted (pepsin secretion): reduced; pepsin secretion (pepsin secretion): markedly inhibited; side-effects in patients (gastric ulcers; oral 200 mg three times per day, 8 weeks): No side-effects were observed; curing effect on peptic ulcers (gastric ulcers; orally for several days at 300 to 1200 mg/day): very marked curing effect; Action on Gastric Juice: Amount of Gastric Juice (gastric juice; activity of controlling gastric juice): +; Action on Gastric Juice: Acids Activity (gastric juice; inhibitory action on acids): -; Action on Gastric Juice: Pepsin Activity (gastric juice; inhibitory action on the activity of pepsin itself): -; Action on Gastric Juice: Acid Secretion (gastric juice; inhibitory action on the secretion of acids): ±; Action on Gastric Juice: Pepsin Secretion (gastric juice; inhibitory action on the secretion of pepsin): +; inhibitory activity on carbachol stimulation (carbachol stimulation): does not exhibit any inhibitory activity; general anticholinergic activities [4]: does not show general anticholinergic activities

Q: For NC[C@H]1CC[C@H](C(=O)Oc2ccc(C(=O)O)cc2)CC1, which inhibition in vivo at 350 mg/kg (Shay ulcers [1]) is on record?
A: The inhibition in vivo at 350 mg/kg was 71%.

Q: With CN1[C@@H]2CC[C@H]1C[C@@H](OC(=O)C(CO)c1ccccc1)C2 (stereo partly shown) [atropine sulfate] as the compound, how does the “Effectiveness on Shay Ulcer (aggressive factors)” value (Shay ulcers [2]) read?
A: Its value is “+”.

Q: And the “Effectiveness on Drug Ulcer (defensive factors)” value (drug ulcers)?
A: The value was “-”.

Q: And the “Effectiveness on Acetic Ulcer (defensive factors)” value (acetic ulcers)?
A: Its value is “+”.

Q: Which inhibition in vivo at 175 mg/kg (Shay ulcers [1]; 175 mg/Kg intraperitoneally in 0.5% CMC) does the source give for NC[C@H]1CC[C@H](C(=O)Oc2ccc(Cl)cc2)CC1 here?
A: Its inhibition in vivo at 175 mg/kg is 62%.

Q: Which inhibition in vivo at 350 mg/kg (Shay ulcers [1]) does the source give for NC[C@H]1CC[C@H](C(=O)Oc2ccc(-c3ccccc3)cc2)CC1 here?
A: The inhibition in vivo at 350 mg/kg was 58%.

Q: For NC[C@H]1CC[C@H](C(=O)Oc2ccc(C=CC(=O)O)cc2)CC1, which inhibition in vivo at 350 mg/kg (Shay ulcers [1]) is on record?
A: The inhibition in vivo at 350 mg/kg was 76%.

Q: For NC[C@H]1CC[C@H](C(=O)Oc2ccc3ccccc3c2)CC1, which inhibition in vivo at 350 mg/kg (Shay ulcers [1]) is on record?
A: The inhibition in vivo at 350 mg/kg was 84%.

Q: With aluminum sucrose sulfate as the compound, how does the “Effectiveness on Shay Ulcer (aggressive factors)” value (Shay ulcers [2]) read?
A: Its value is “+”.

Q: What about the “Inhibitory Ratio, Aspirin ulcer” value (drug ulcers; 1000 mg/Kg p.o.) of the same compound?
A: The value was 38.6%.

Q: What about the “Inhibitory Ratio, Indomethacin ulcer” value (drug ulcers; 1000 mg/Kg p.o.) of the same compound?
A: Its value is 40.0%.

Q: What about the “Inhibitory Ratio, Phenylbutazone ulcer” value (drug ulcers; 1000 mg/Kg p.o.) of the same compound?
A: The value was 38.0%.

Q: And the “Effectiveness on Drug Ulcer (defensive factors)” value (drug ulcers)?
A: The value was “+”.

Q: And the “Effectiveness on Acetic Ulcer (defensive factors)” value (acetic ulcers)?
A: The value was “+”.

Q: What about the “Effectiveness on Clamping Ulcer (defensive factors)” value (clamping ulcers) of the same compound?
A: The value was “+”.

Q: What about the “Effectiveness on Clamping-Cortisone Ulcer (defensive factors)” value [3] of the same compound?
A: The value was “-”.

Q: Which inhibition in vivo at 350 mg/kg (Shay ulcers [1]) does the source give for NC[C@H]1CC[C@H](C(=O)Oc2ccc(CCC(=O)O)cc2)CC1 [drawing 3] here?
A: The inhibition in vivo at 350 mg/kg was 70%.

Q: Which results are given for CC(C)=CCC/C(C)=C/CC/C(C)=C/CCC(=O)OC/C=C(\C)CCC=C(C)C [gefarnate]?
A: inhibitory ratio (Shay ulcer) (Shay ulcers [2]; 100 mg/Kg orally): 83%; Effectiveness on Shay Ulcer (aggressive factors) (Shay ulcers [2]): -; Inhibitory Ratio, Aspirin ulcer (drug ulcers; 100 mg/Kg p.o.): 42.8%; Inhibitory Ratio, Indomethacin ulcer (drug ulcers; 100 mg/Kg p.o.): 29.0%; Inhibitory Ratio, Phenylbutazone ulcer (drug ulcers; 100 mg/Kg p.o.): 31.5%; Effectiveness on Drug Ulcer (defensive factors) (drug ulcers): +; Effectiveness on Acetic Ulcer (defensive factors) (acetic ulcers): -; Effectiveness on Clamping Ulcer (defensive factors) (clamping ulcers): +; Effectiveness on Clamping-Cortisone Ulcer (defensive factors) [3]: +

Q: Which inhibition in vivo at 350 mg/kg (Shay ulcers [1]) does the source give for NC[C@H]1CC[C@H](C(=O)Oc2ccc(CC(N)C(=O)O)cc2)CC1 (stereo partly shown) here?
A: The inhibition in vivo at 350 mg/kg was 71%.
